Measurements published in patent publication US8163767B2, “Heterocyclic Janus Kinase 3 inhibitors” (Astellas Pharma Inc., priority 2005, dated 2012).
Structures can show the parent of a compound that is named as a salt. Where two headings read alike, the source gives them in different places.

Molecular target: T1, human JAK3 (Homo sapiens, UniProt P52333)
T1 construct: His (N); purchased Carna Bioscience Inc. (Kobe, Japan); host or cells: baculovirus expression system
Test: Determination of Janus Kinase 3 (JAK3) inhibitory activity
Assay type: biochemical
Details: for inhibition at 10 µM: test compound 10^−5M; for inhibition at 10 µM / inhibition at 0.01 µM: read-out: IR (JAK3 inhibition rate); for IC50: JAK3 inhibitory activity
Protocol: Test 1: Determination of Janus Kinase 3 (JAK3) Inhibitory Activity
The assay for JAK3 activity was performed basically according to the method as proposed by Okimoto et al, as follows.
Purified kinase domain (KD) of human JAK3 was purchased from Carna Bioscience Inc. (Kobe, Japan). 796-1124 (end) amino acids of human JAK3 [accession number #NM_000215] was expressed as N-terminal His-tagged protein (41 kDa) using the baculovirus expression system and purified by using Ni-NTA affinity chromatography.
Biotin-Lyn-Substrate-peptide and ATP were used as substrates. Assay buffer consisted of 15 mM Tris-HCl pH7.5, 0.01% Tween 20 and 2 mM DTT. For the standard assay, 20 μL of substrate solution (Assay buffer containing 627 nM Biotin-Lyn-Substrate-2, 20 μM ATP and 25 mM MgCl2), 10 μL of assay buffer containing test compound and 20 μL of enzyme solution were added to the plate and mixed well.
After 1 hour incubation at ambient temperature, the plate was washed 4 times with wash buffer (50 mM Tris-HCl pH 7.5, 150 mM NaCl, 0.02% Tween 20), and then blocking buffer (wash buffer containing 0.1% Bovine serum albumin) was added to the plate. After 30 minutes incubation at ambient temperature, blocking buffer was removed and HRP-PY-20 solution (HRP-PY-20 500 times diluted with blocking buffer) was added. After 30 minutes incubation at ambient temperature, the plate was washed 4 times and TMB substrate solution (Sigma) was added to the plate. After 4 minutes incubation at ambient temperature, 1 M H2SO4 was added to the plate to stop the reaction. Enzyme activity was measured as optical density at 450 nm.

T1 sequence (P52333 796-1124): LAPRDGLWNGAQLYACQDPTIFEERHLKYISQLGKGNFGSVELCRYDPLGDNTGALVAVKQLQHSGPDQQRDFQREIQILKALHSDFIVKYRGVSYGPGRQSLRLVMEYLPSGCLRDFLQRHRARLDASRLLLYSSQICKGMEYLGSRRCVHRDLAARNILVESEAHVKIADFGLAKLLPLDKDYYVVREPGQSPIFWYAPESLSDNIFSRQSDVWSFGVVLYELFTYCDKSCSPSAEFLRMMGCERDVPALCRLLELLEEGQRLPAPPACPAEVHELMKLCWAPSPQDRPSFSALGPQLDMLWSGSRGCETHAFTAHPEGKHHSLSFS

| Compound | inhibition at 10 µM | inhibition at 0.01 µM (test compound 10^−8M) | further results |
| --- | --- | --- | --- |
| C[C@@H]1CCN(C(=O)CC#N)C[C@@H]1n1c(=O)[nH]c2cnc3[nH]ccc3c21 (relative stereo) [Example 189, rel-3-[(3R,4R)-4-Methyl-3-(2-oxo-3,6-dihydroimidazo[4,5-d]pyrrolo-[2,3-b]pyridin-1(2H)-yl)-1-piperidinyl]-3-oxopropanenitrile] |  | > 50% |  |
| CC(C)[C@@H](C)Nc1c(C(N)=O)cnc2[nH]ccc12 [Example 18, 4-{[(1R)-1,2-Dimethylpropyl]amino}-1H-pyrrolo[2,3-b]pyridine-5-carboxamide] |  | > 50% |  |
| NC(=O)c1cnc2[nH]ccc2c1N[C@@H]1CCCC[C@@H]1CO [Example 109, 4-{[(1R,2S)-2-(Hydroxymethyl)cyclohexyl]amino}-1H-pyrrolo-[2,3-b]pyridine-5-carboxamide] | > 50% |  |  |
| O=C(O)c1cnc2[nH]ccc2c1NC1CCCCC1 [Example 96, 4-(cyclohexylamino)-1H-pyrrolo[2,3-b]pyridine-5-carboxylic acid] | > 50% |  |  |
| N#Cc1ccc(N2CCC(Nc3c(C(N)=O)cnc4[nH]ccc34)CC2)nc1 [Example 17, 4-{[1-(5-Cyano-2-pyridinyl)-4-piperidinyl]amino}-1H-pyrrolo-[2,3-b]pyridine-5-carboxamide] |  | > 50% |  |
| C[C@@H]1CCCC[C@@H]1N(C)c1c(C#N)cnc2[nH]ccc12 [Example 5, 4-{Methyl[(1S,2R)-2-methylcyclohexyl]amino}-1H-pyrrolo[2,3-b]-pyridine-5-carbonitrile] | > 50% |  |  |
| C[C@@H]1CCCC[C@@H]1n1c(=O)[nH]c2cnc3[nH]ccc3c21 [Example 112, 1-[(1S,2R)-2-methylcyclohexyl]-3,6-dihydroimidazo[4,5-d]pyrrolo[2,3-b]pyridin-2(1H)-one] |  | > 50% | IC50: 3 nM |
| CC1CCN(C(=O)C2(C#N)CC2)CC1n1c(=O)[nH]c2cnc3[nH]ccc3c21 (stereo not shown) [Example 175, 1-{[4-Methyl-3-(2-oxo-3,6-dihydroimidazo[4,5-d]pyrrolo[2,3-b]-pyridin-1(2H)-yl)-1-piperidinyl]carbonyl}cyclopropane-carbonitrile] |  | > 50% |  |
| C[C@@H]1CCN(C(=O)c2ccc(Cl)s2)C[C@@H]1n1c(=O)[nH]c2cnc3[nH]ccc3c21 (relative stereo) [Example 170, rel-1-{(3R,4R)-1-[(5-Chloro-2-thienyl)carbonyl]-4-methyl-3-piperidinyl}-3,6-dihydroimidazo[4,5-d]pyrrolo[2,3-b]pyridin-2(1H)-one] |  | > 50% |  |
| C[C@@H]1CCCC[C@@H]1N(C)c1ccnc2[nH]cnc12 [Example 156, N-Methyl-N-[(1S,2R)-2-methylcyclohexyl]-3H-imidazo[4,5-b]-pyridin-7-amine] | > 50% |  |  |
| CC[C@@H]1CCCC[C@@H]1n1c(=O)[nH]c2cnc3[nH]ccc3c21 [Example 118, 1-[(1S,2R)-2-Ethylcyclohexyl]-3,6-dihydroimidazo[4,5-d]pyrrolo-[2,3-b]pyridin-2(1H)-one hydrochloride] |  |  | IC50: 5.1 nM; inhibition at 0.01 µM: > 50% |
| CN(c1c(C(N)=O)cnc2[nH]ccc12)C1CCCCC1 [Example 4, 4-[Cyclohexyl(methyl)amino]-1H-pyrrolo[2,3-b]pyridine-5-carboxamide] | > 50% |  |  |
| CNC(=O)c1cnc2[nH]ccc2c1NC1CCCCC1 [Example 187, 4-(cyclohexylamino)-N-methyl-1H-pyrrolo[2,3-b]pyridine-5-carboxamide] | > 50% |  |  |
| O=C(Nc1ccccc1)c1cnc2[nH]ccc2c1NC1CCCCC1 [Example 192, 4-(Cyclohexylamino)-N-phenyl-1H-pyrrolo[2,3-b]pyridine-5-carboxamide] | > 50% |  |  |
| C[C@@H]1CCCC[C@@H]1Nc1c(C(N)=O)cnc2[nH]ccc12 [Example 106, 4-{[(1S,2R)-2-Methylcyclohexyl]amino}-1H-pyrrolo[2,3-b]-pyridine-5-carboxamide] |  | > 50% | IC50: 3 nM |
| CCOC(=O)c1cnc2[nH]ccc2c1N(C)[C@H]1CCCC[C@H]1C [Example 1, ethyl 4-{methyl[(1S,2R)-2-methylcyclohexyl]amino}-1H-pyrrolo[2,3-b]pyridine-5-carboxylate] | > 50% |  |  |
| NC(=O)c1cnc2[nH]ccc2c1NC1CCCC1 [Example 6, 4-(Cyclopentylamino)-1H-pyrrolo[2,3-b]pyridine-5-carboxamide] | > 50% |  |  |

Further lines, with some results ahead:

| inhibition at 10 µM | inhibition at 0.01 µM (test compound 10^−8M) | Compound | further results |
| --- | --- | --- | --- |
| > 50% |  | CN(c1c(F)cnc2[nH]ccc12)C1CCCCC1 [Example 214, N-cyclohexyl-5-fluoro-N-methyl-1H-pyrrolo[2,3-b]pyridin-4-amine] |  |
| > 50% |  | CN(c1ccnc2[nH]cc(C#N)c12)C1CCCCC1 [Example 212, 4-[cyclohexyl(methyl)amino]-1H-pyrrolo[2,3-b]pyridine-3-carbonitrile] |  |
|  | > 50% | CC1CCN(C(=O)N(C)C)CC1n1c(=O)[nH]c2cnc3[nH]ccc3c21 (stereo not shown) [Example 275, N,N,4-Trimethyl-3-(2-oxo-3,6-dihydroimidazo[4,5-d]pyrrolo-[2,3-b]pyridin-1(2H)-yl)-1-piperidine carboxamide] |  |
|  | > 50% | C[C@@H]1CCCC[C@@H]1n1c(=O)[nH]c2cnc3[nH]cc(Br)c3c21 [Example 324, 8-bromo-1-[(1S,2R)-2-methylcyclohexyl]-3,6-dihydroimidazo[4,5-d]pyrrolo[2,3-b]pyridin-2(1H)-one] |  |
| > 50% |  | Fc1cnc2[nH]ccc2c1NC1CCCCC1 [Example 222, N-cyclohexyl-5-fluoro-1H-pyrrolo[2,3-b]pyridin-4-amine] |  |
|  | > 50% | CC1CCN(c2ccc(C#N)nn2)CC1n1c(=O)[nH]c2cnc3[nH]ccc3c21 (stereo not shown) [Example 244, 6-[4-Methyl-3-(2-oxo-3,6-dihydroimidazo[4,5-d]pyrrolo[2,3-b]-pyridin-1(2H)-yl)-1-piperidinyl]-3-pyridazinecarbonitrile] |  |
| > 50% |  | CN(c1ccnc2nc[nH]c12)C1CCCCC1 [Example 209, N-cyclohexyl-N-methyl-1H-imidazo[4,5-b]pyridin-7-amine] |  |
|  | > 50% | N#Cc1ccc(N2CCC(Nc3c(C(N)=O)cnc4[nH]cnc34)CC2)nc1 [Example 322, 7-{[1-(5-cyano-2-pyridinyl)-4-piperidinyl]amino}-3H-imidazo[4,5-b]pyridine-6-carboxamide] |  |
|  | > 50% | CC1CCN(C(=O)N(C)CC#N)CC1n1c(=O)[nH]c2cnc3[nH]ccc3c21 (stereo not shown) [Example 284, N-(Cyanomethyl)-N,4-dimethyl-3-(2-oxo-3,6-dihydroimidazo-[4,5-d]pyrrolo[2,3-b]pyridin-1(2H)-yl)-1-piperidinecarboxamide] |  |
|  | > 50% | CC1CCN(C(=O)N2CC(C#N)C2)CC1n1c(=O)[nH]c2cnc3[nH]ccc3c21 (stereo not shown) [Example 280, 1-{[4-Methyl-3-(2-oxo-3,6-dihydroimidazo[4,5-d]pyrrolo[2,3-b]-pyridin-1(2H)-yl)-1-piperidinyl]carbonyl}-3-azetidinecarbonitrile] |  |
|  | > 50% | CC1CCN(c2ncc(C#N)s2)CC1n1c(=O)[nH]c2cnc3[nH]ccc3c21 (stereo not shown) [Example 242, 2-[4-Methyl-3-(2-oxo-3,6-dihydroimidazo[4,5-d]pyrrolo[2,3-b]-pyridin-1(2H)-yl)-1-piperidinyl]-thiazole-5-carbonitrile] |  |
| > 50% |  | Fc1cnc2[nH]ccc2c1N1CCCCC1 [Example 223, 5-fluoro-4-(1-piperidinyl)-1H-pyrrolo[2,3-b]pyridine] |  |
| > 50% |  | C[C@@H]1CCCC[C@@H]1Nc1c(F)cnc2[nH]ccc12 [Example 225, 5-fluoro-N-[(1S,2R)-2-methylcyclohexyl]-1H-pyrrolo[2,3-b]pyridin-4-amine] |  |
|  | > 50% | C[C@@H]1CCN(C(=O)N2CCC(F)(F)C2)C[C@@H]1n1c(=O)[nH]c2cnc3[nH]ccc3c21 (relative stereo) [Example 274, rel-1-{(3R,4R)-1-[(3,3-difluoropyrrolidin-1-yl)carbonyl]-4-methylpiperidin-3-yl}-3,6-dihydroimidazo[4,5-d]pyrrolo[2,3-b]pyridin-2(1H)-one] |  |
| > 50% |  | CN(c1ccnc2[nH]cc([N+](=O)[O-])c12)C1CCCCC1 [Example 210, N-cyclohexyl-N-methyl-3-nitro-1H-pyrrolo[2,3-b]pyridin-4-amine] |  |
| > 50% |  | CN(c1ccnc2[nH]ccc12)C1CCCCC1 [Example 211, N-cyclohexyl-N-methyl-1H-pyrrolo[2,3-b]pyridin-4-amine] |  |
|  | > 50% | C[C@@H]1CCN(c2ccc(C#N)cn2)C[C@@H]1n1c(=O)[nH]c2cnc3[nH]ccc3c21 [Example 240, 6-[(3R,4R)-4-Methyl-3-(2-oxo-3,6-dihydroimidazo[4,5-d]pyrrolo[2,3-b]pyridin-1(2H)-yl)-1-piperidinyl]nicotinonitrile] |  |
